Test results as given in US10736923B2, “Methods and compositions for generating chondrocyte lineage cells and/or cartilage like tissue” (UNIVERSITY HEALTH NETWORK, priority 2013, dated 2020).

What was measured:
Type in all cases: cell-based, human
[1] = system: primitive streak-like mesoderm population; assay: Paraxial mesoderm specification in monolayer culture, flow cytometry of cell surface markers
Experimental: FIG. 2. Characterization of paraxial mesoderm derived from hPSCs. Flow cytometric analysis of day 5 mesoderm treated with no additional factors (0 DM, no FGF), FGF, 4 μM DM, or 4 μM DM+FGF. Day 5 profiles depict KDR and PDGFRa expression, a double-positive population (gated) indicates mesoderm that has cardiac potential (20). Treatment with FGF results in less PDGFRa expression on day 5. (B) Expression of cell surface markers CD73, CD105, and PDGFR-beta on mesoderm populations on day 15 of differentiation. […] Experimental cell treatments during day 4 to day 6 include the combination of Dorsomorphin, bFGF, TGFbeta inhibitor (SB431542) in the presence or absence of the wnt pathway inhibitor IWP2. Flow cytometric analyses of CD73 and CD105, on day 15 mesoderm populations derived as indicated. (D) Gene expression analyses of day 15 mesoderm populations derived in indicated factors. Nkx2.5 is a cardiac transcription factor, Meox1 and Nkx3.2 are paraxial mesoderm and somite transcription factors. (E) Micrographs depicting 1 day old micromasses and 1 week old micromasses derived from day 15 mesoderm populations as indicated. (F) Flow cytometric analysis of cardiac troponin T (cTnT) expression in 1 week old micromasses derived from day 15 mesoderms as indicated. […] To generate chondrocytes, it is essential to first specify this PS population to a paraxial mesoderm fate. Previous studies have shown that mesoderm populations that express cell surface markers often found on mesenchymal stem cells, CD73 and CD105, have chondrogenic potential (Hwang, Kim et al. 2006). The expression of these two cell surface markers, as well as the expression of transcription factors Meox1 and Nkx3.2 combined with the lack of expression of Nkx2.5 to monitor the emergence of a paraxial mesoderm population was used. Previous experiments in the mouse ESC model system have shown the importance of inhibiting the BMP signaling pathway in the context of FGF signaling to prevent the emergence of cardiac mesoderm and promote the development of paraxial mesoderm (Craft, Ahmed et al. 2013). […] Very few cells in untreated mesoderm conditions expressed CD73 and CD105 (7.46%, FIG. 2B). […] The changes in expression of these surface markers were accompanied by the upregulation of paraxial genes Meox1 and Nkx3.2 (FIG. 2C). […] Thus, in some cell lines, the efficiency of paraxial mesoderm specification may be improved in the presence of a Wnt pathway antagonist immediately following the PS mesoderm induction phase.

[2] = system: day 15 mesoderm populations; assay: Gene expression analyses of day 15 mesoderm populations
Experimental: FIG. 2. Characterization of paraxial mesoderm derived from hPSCs. Flow cytometric analysis of day 5 mesoderm treated with no additional factors (0 DM, no FGF), FGF, 4 μM DM, or 4 μM DM+FGF. Day 5 profiles depict KDR and PDGFRa expression, a double-positive population (gated) indicates mesoderm that has cardiac potential (20). Treatment with FGF results in less PDGFRa expression on day 5. (B) Expression of cell surface markers CD73, CD105, and PDGFR-beta on mesoderm populations on day 15 of differentiation. […] Experimental cell treatments during day 4 to day 6 include the combination of Dorsomorphin, bFGF, TGFbeta inhibitor (SB431542) in the presence or absence of the wnt pathway inhibitor IWP2. Flow cytometric analyses of CD73 and CD105, on day 15 mesoderm populations derived as indicated. (D) Gene expression analyses of day 15 mesoderm populations derived in indicated factors. Nkx2.5 is a cardiac transcription factor, Meox1 and Nkx3.2 are paraxial mesoderm and somite transcription factors. (E) Micrographs depicting 1 day old micromasses and 1 week old micromasses derived from day 15 mesoderm populations as indicated. (F) Flow cytometric analysis of cardiac troponin T (cTnT) expression in 1 week old micromasses derived from day 15 mesoderms as indicated. […] To generate chondrocytes, it is essential to first specify this PS population to a paraxial mesoderm fate. […]

[3] = system: day 15 mesoderm populations; assay: Micromass assay of day 15 mesoderm populations
Experimental: FIG. 2. Characterization of paraxial mesoderm derived from hPSCs. Flow cytometric analysis of day 5 mesoderm treated with no additional factors (0 DM, no FGF), FGF, 4 μM DM, or 4 μM DM+FGF. Day 5 profiles depict KDR and PDGFRa expression, a double-positive population (gated) indicates mesoderm that has cardiac potential (20). Treatment with FGF results in less PDGFRa expression on day 5. (B) Expression of cell surface markers CD73, CD105, and PDGFR-beta on mesoderm populations on day 15 of differentiation. […] Experimental cell treatments during day 4 to day 6 include the combination of Dorsomorphin, bFGF, TGFbeta inhibitor (SB431542) in the presence or absence of the wnt pathway inhibitor IWP2. Flow cytometric analyses of CD73 and CD105, on day 15 mesoderm populations derived as indicated. (D) Gene expression analyses of day 15 mesoderm populations derived in indicated factors. Nkx2.5 is a cardiac transcription factor, Meox1 and Nkx3.2 are paraxial mesoderm and somite transcription factors. (E) Micrographs depicting 1 day old micromasses and 1 week old micromasses derived from day 15 mesoderm populations as indicated. (F) Flow cytometric analysis of cardiac troponin T (cTnT) expression in 1 week old micromasses derived from day 15 mesoderms as indicated. […] Previous studies have shown that TGFBeta/BMP signaling is required to generate chondrocyte progenitors from paraxial mesoderm. […] Following 10 days of TGFb3 treatment (day 25 total), cultures could be switched to media containing BMP4 or maintained in TGFb3 (stage 4) in order to specify subsets of chondrocytes (articular/non-hypertrophic or growth plate/hypertrophic). To determine the chondrocyte potential of the day 15 mesoderm populations, the cells were plated at high cell density in a 20 microliter volume on tissue culture treated Petri dishes for an hour (micromass) and then the ‘spot’ was submerged/covered with media. In our initial studies, the cells were ‘spotted’ in a media containing 2% fetal bovine serum. […]

[4] = system: hPSC-derived chondrocytes; assay: CD73 flow cytometry of hPSC-derived cartilage tissues; settings: hPSC-derived cartilage tissues after 11 weeks
From the text: (§1) FIG. 6. CD73 is expressed by articular chondrocytes. Flow cytometric analyses of primary chondrocytes (A) Healthy adult articular chondrocytes and iliac crest GPC-like chondrocytes, (B) Primary fetal chondrocytes, primary (C) or passaged (passage (P)2, D) fetal chondrocytes after 9 to 10 weeks of micromass culture in the presence of TGFB3 or BMP4, and (E) hPSC-derived chondrocytes after 11 weeks derived in the presence of TGFB3 or BMP4. (F) Time course of CD73 and PDGFR-beta cells surface expression on T12 and T15 paraxial mesoderm populations, and micromass cultures treated with TGFB3 after 3 days, 10 days, and 2 weeks. (G) Time course of CD73 expression on TGFB3-treated micromasses after 3 days, 7 days, 10 days, and 2 to 5 weeks.
Primary (P0) and passaged (P2) fetal chondrocytes can also be cultured in micromass with TGFB3 or BMP4, similar to how hPSC-derived cartilage tissues are formed. TGFB3-treated fetal P0-derived or fetal P2-derived cartilage tissues contain over 93% CD73 positive cells, while BMP4 treatment reduces the percentage of CD73+ cells to 70% and 61% respectively (FIG. 6C,D). CD73 expression is also expressed by over 98% of hPSC-derived cartilage tissues derived with TGFB3-treatment (FIG. 6E). The percentage of CD73+ cells is reduced to only about 57% of cells after BMP4-treatment. […]

[5] = system: hPSC-derived paraxial mesoderm; assay: Chondrocyte specification in micromass culture with TGFB3 or BMP4 (histology, scatter flow cytometry, qRT-PCR, immunostaining)
From the text: FIG. 4. TGFB3 and BMP4 specify chondrocytes and cartilage-like tissues with articular cartilage and growth plate cartilage phenotypes. (A) Micrographs of 5 week old micromasses derived with TGFB3 or BMP4, 20× magnification. (B) Tissue histology (stained with toluidine blue) of 13 week cartilage tissues derived with TGFB3 or BMP4. […] (C) Flow cytometric analysis of forward and side cell scatter parameters of 3 week and 5 week old micromasses. Side scatter indicates cell granularity and forward cell scatter indicates cell size. (D) Comparison of hPSC-derived micromass tissues to fetal primary chondrocyte derived micromass tissues and the developing human fetal femur cartilage. Articular cartilage regions appear to have smaller cells in size compared to growth plate like regions, which contain cells which appear enlarged (hypertrophic). Cartilage tissues in micromass as well as in the fetal femur stain uniformly with the toluidine blue stain (images are pink/purple in color and indicate the presence of cartilage proteins). The BMP4-treated micromass tissues contain a large number of enlarged cells which is similar to the bottom panel of the fetal cartilage which represents a growth plate cartilage. TGFB3 treated micromass cultures contain fewer, if any, enlarged chondrocytes, and appear similar to the upper panel of the fetal cartilage which is the site of articular cartilage. (E) Micrograph using GDF5 instead of BMP4 to generate hypertrophic chondrocytes. (F) Histological analyses of cartilage tissues derived from hiPSCs stained with Toluidine blue after 12 weeks. (G,H) Immunohistochemical staining of hESC-derived cartilage tissues for type II Collagen (G, 8 week tissues), and lubricin (H, 12 week tissues).
FIG. 5. Gene expression analyses of chondrocyte specification in the presence of TGFB3 or BMP4 during stages 3 and 4 of differentiation respectively. General chondrocyte genes Sox9 (A) and collagen 2 (B), hypertrophic genes collagen 10 (C), Runx2 (D), osterix (E) and alkaline phosphatase (F), articular cartilage associated genes lubricin (G) and cartilage intermediate layer protein 2 (CILP2) (H), interzone-related (joint progenitor) genes GDF5 (I), ERG (J) and Wnt9a (K). Expression is copy number relative to TBP (n=3 to 8 biological replicates) and is compared to primary fetal chondrocytes (aged 16 to 19 weeks, n=4), primary healthy adult articular chondrocytes (n=2), and growth plate-like chondrocytes isolated from the iliac crest of an adult (n=1). T15 Mesoderm indicates day 15 hESC-derived paraxial mesoderm (DM+FGF-treated). Error bars indicate s.e.m.
FIG. 8. TGFβ1, TGFβ2, and TGFβ3 generated articular chondrocytes from hPSC-derived paraxial mesoderm. COL2A1, lubricin, and CILP2 gene expression after 12 weeks of micromass culture in the presence of TGF agonists as indicated (10 ng/ml). Values represent copy number mRNA relative to TBP. Error bars indicate s.e.m.
Previous studies have shown that TGFBeta/BMP signaling is required to generate chondrocyte progenitors from paraxial mesoderm. […] Following 10 days of TGFb3 treatment (day 25 total), cultures could be switched to media containing BMP4 or maintained in TGFb3 (stage 4) in order to specify subsets of chondrocytes (articular/non-hypertrophic or growth plate/hypertrophic). To determine the chondrocyte potential of the day 15 mesoderm populations, the cells were plated at high cell density in a 20 microliter volume on tissue culture treated Petri dishes for an hour (micromass) and then the ‘spot’ was submerged/covered with media. In our initial studies, the cells were ‘spotted’ in a media containing 2% fetal bovine serum. However, this short serum exposure can be omitted with no effects on cartilage formation at later stages, making this protocol optionally serum-free. After 2 to 3 days, serum-free media containing TGFb3 is added to the culture to generate chondrocyte progenitors. […]

fetal chondrocytes = assay: CD73 flow cytometry of fetal chondrocytes in micromass culture; settings: 9 to 10 weeks of micromass culture
From the text: as §1
Primary (P0) and passaged (P2) fetal chondrocytes can also be cultured in micromass with TGFB3 or BMP4, similar to how hPSC-derived cartilage tissues are formed. TGFB3-treated fetal P0-derived or fetal P2-derived cartilage tissues contain over 93% CD73 positive cells, while BMP4 treatment reduces the percentage of CD73+ cells to 70% and 61% respectively (FIG. 6C,D). CD73 expression is also expressed by over 98% of hPSC-derived cartilage tissues derived with TGFB3-treatment (FIG. 6E). The percentage of CD73+ cells is reduced to only about 57% of cells after BMP4-treatment. Thus, CD73 marks primary healthy adult ACs, a proportion of healthy fetal chondrocytes, fetal chondrocytes or passaged fetal chondrocytes cultured as micromasses in TGFB3, and TGFB3-treated articular chondrocyte-like cells derived from human PSCs.

[6] = 8- to 12-week old tissue, versus tissue maintained in TGFb3

Substance: bFGF: basic fibroblast growth factor, FGF agonist
- expression patterns of PDGFRa and KDR ([1]; T5, versus untreated mesoderm, DM T4 to T6): did not change the PDGFRa/KDR population drastically
- proportion of cells expressing CD73 and CD105 ([1]; day 15, FGF day 4 to day 15, DM T4-T6): 52%
- PDGF receptor beta expression on CD73-positive cells ([1]; day 15 monolayers): also expressed the PDGF receptor beta
- Meox1 expression [2]: upregulation
- Nkx3.2 expression [2]: upregulation
- generation of cardiomyocytes (cTnT) ([3]; 1 week of micromass culture): did not generate any cardiomyocytes
- cartilage-like tissue formation ([3]; after 4 weeks of micromass culture, treatment in monolayer phase): did not maintain a cartilage tissue phenotype
- adherence and survival in micromass culture ([3]; first week of micromass culture): survived the first week of micromass culture as an adherent layer of cells

Substance: BMP4: Bone Morphogenetic Protein 4
- CD73 positive cells [4]: about 57%
- forward and side scatter of live cells (cell size, granularity) ([5]; 3 week and 5 week micromasses): larger forward scatter (FSC)
- chondrocyte morphology ([5]; 5 week old micromasses): round with cobblestone-like appearance
- COL10A1 expression [5, 6]: significantly higher
- RUNX2 expression [5, 6]: significantly higher
- SP7 expression [5, 6]: significantly higher
- alkaline phosphatase (ALP/ALPL) expression [5, 6]: significantly higher
- Lubricin protein (immunohistochemistry) ([5]; 12 week micromass tissue): not
- tissue histology (toluidine blue), chondrocyte size ([5]; 13 week old tissues, GDF5 instead of BMP4): enlarged hypertrophic chondrocytes
- cartilage tissue formation on direct plating of day 15 mesoderm ([5]; direct plating into BMP4 containing media, no TGFB3 stimulation): non-adherent cell aggregates that did not form cartilage tissue
- COL2A1 expression ([5]; qRT-PCR, by 2 weeks of culture): upregulated
- SOX9 expression ([5]; qRT-PCR, by 2 weeks of culture): upregulated
- CD73 positive cells (fetal chondrocytes; passaged (P2) fetal chondrocytes): 61%
- CD73 positive cells (fetal chondrocytes; primary (P0) fetal chondrocytes): 70%
